Assay results as given in US10906915B2, “Substituted pyrazoloazepin-4-ones and their use as phosphodiesterase inhibitors” (LEO Pharma A/S, priority 2016, dated 2021).

These molecules were tested against human PDE4D catalytic domain (UniProt no. Q08499) (Homo sapiens (Human), UniProt Q08499) (assay: PDE4 assay (TR-FRET, FAM-cAMP cleavage)). Conditions: human PDE4D catalytic domain; molar concentration giving 50% inhibition of substrate cleavage; read-out: PDE4 IC50 range.
Type: biochemical
In short: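 Read-out is time-resolved FRET from Tb donor to FAM-AMP captured on trivalent-metal nanoparticles added to stop the reaction. Substrate was a mix of plain and FAM-labelled cAMP, cleaved by human PDE4D catalytic domain ([…]) with titrated compound; IC50 ranges (nM) versus controls.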

human PDE4D catalytic domain, sequence (Q08499 380-740 limits assumed): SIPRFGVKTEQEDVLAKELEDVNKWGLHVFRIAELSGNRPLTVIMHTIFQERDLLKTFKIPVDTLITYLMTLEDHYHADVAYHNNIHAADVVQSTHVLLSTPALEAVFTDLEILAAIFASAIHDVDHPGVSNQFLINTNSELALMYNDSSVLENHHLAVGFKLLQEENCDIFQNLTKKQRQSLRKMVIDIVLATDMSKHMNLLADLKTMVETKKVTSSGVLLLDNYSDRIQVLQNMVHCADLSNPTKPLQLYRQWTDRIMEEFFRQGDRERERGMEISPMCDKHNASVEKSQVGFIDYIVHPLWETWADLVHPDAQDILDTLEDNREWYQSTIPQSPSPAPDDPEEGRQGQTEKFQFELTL

CCc1nn(C[C@@H](C)COC(=O)c2ccc(S(=O)(=O)CC)cc2)c2c1C(=O)NCC1(CCOCC1)C2 [Example 227, [(2R)-3-(3-ethyl-4-oxo-spiro[6,8-dihydro-5H-pyrazolo[4,3-c]azepine-7,4′-tetrahydropyran]-1-yl)-2-methyl-propyl] 4-ethylsulfonylbenzoate] and CCc1nn(C[C@@H](C)COC(=O)c2ccc(S(N)(=O)=O)cc2)c2c1C(=O)NCC1(CCOCC1)C2 [Example 215, [(2R)-3-(3-ethyl-4-oxo-spiro[6,8-dihydro-5H-pyrazolo[4,3-c]azepine-7,4′-tetrahydropyran]-1-yl)-2-methyl-propyl] 4-sulfamoylbenzoate] cannot be ordered by IC50: less than 0.1 µM for the first, less than 0.1 µM for the second.

Compared with CCc1nn(CCCOC(=O)c2ccc(C(=O)NC)cc2)c2c1C(=O)NCC1(CCOCC1)C2 [Example 141, 3-(3-ethyl-4-oxo-spiro[6,8-dihydro-5H-pyrazolo[4,3-c]azepine-7,4′-tetrahydropyran]-1-yl)propyl 4-(methylcarbamoyl)benzoate], CCc1nn(CCCOC(=O)c2ccc(C(=O)N(C)C)cc2)c2c1C(=O)NCC1(CCOCC1)C2 [Example 143, 3-(3-ethyl-4-oxo-spiro[6,8-dihydro-5H-pyrazolo[4,3-c]azepine-7,4′-tetrahydropyran]-1-yl)propyl 4-(dimethylcarbamoyl)-benzoate] is higher in IC50: less than 0.1 µM for the first, 0.1 to 0.5 µM for the second.

CCc1nn(CCCOC(=O)c2ccccc2S(C)(=O)=O)c2c1C(=O)NCC1(CCOCC1)C2 [Example 100, 3-(3-ethyl-4-oxo-spiro[6,8-dihydro-5H-pyrazolo[4,3-c]azepine-7,4′-tetrahydropyran]-1-yl)propyl 2-methylsulfonylbenzoate] and CCc1nn(CCCOC(=O)c2ccc(C)cc2C)c2c1C(=O)NCC1(CCOCC1)C2 [Example 27, 3-(3-ethyl-4-oxo-spiro[6,8-dihydro-5H-pyrazolo[4,3-c]azepine-7,4′-tetrahydropyran]-1-yl)propyl 2,4-dimethylbenzoate] cannot be ordered by IC50: less than 0.1 µM for the first, less than 0.1 µM for the second.

CCc1nn(C[C@@H](C)COC(=O)c2ccc(C(=O)N3CCN(C)CC3)cc2)c2c1C(=O)NCC1(CCOCC1)C2 [Example 261, [(2R)-3-(3-ethyl-4-oxo-spiro[6,8-dihydro-5H-pyrazolo[4,3-c]azepine-7,4′-tetrahydropyran]-1-yl)-2-methyl-propyl] 4-(4-methylpiperazine-1-carbonyl)benzoate] and CCc1nn(C[C@@H](C)COC(=O)c2cc(C(F)(F)F)ccc2C)c2c1C(=O)NCC1(CCOCC1)C2 [Example 218, [(2R)-3-(3-ethyl-4-oxo-spiro[6,8-dihydro-5H-pyrazolo[4,3-c]azepine-7,4′-tetrahydropyran]-1-yl)-2-methyl-propyl] 2-methyl-5-(trifluoromethyl)benzoate] cannot be ordered by IC50: less than 0.1 µM for the first, less than 0.1 µM for the second.

With CCc1nn(CCCOC(=O)c2ccc(C(F)(F)F)cc2F)c2c1C(=O)NCC1(CCOCC1)C2 [Example 113, 3-(3-ethyl-4-oxo-spiro[6,8-dihydro-5H-pyrazolo[4,3-c]azepine-7,4′-tetrahydropyran]-1-yl)propyl 2-fluoro-4-(trifluoromethyl)benzoate] the IC50 was less than 0.1 µM.

Same assay, conditions: read-out: PDE4 IC50 range

CCc1nn(CC(C)(C)COC(=O)c2ccc(C#N)c(F)c2)c2c1C(=O)NCC1(CCOCC1)C2 [Example 297, [3-(3-ethyl-4-oxo-spiro[6,8-dihydro-5H-pyrazolo[4,3-c]azepine-7,4′-tetrahydropyran]-1-yl)-2,2-dimethyl-propyl] 4-cyano-3-fluoro-benzoate] and CCNC(=O)c1cccc(C(=O)OCC(C)(C)Cn2nc(CC)c3c2CC2(CCOCC2)CNC3=O)c1 [Example 341, [3-(3-ethyl-4-oxo-spiro[6,8-dihydro-5H-pyrazolo[4,3-c]azepine-7,4′-tetrahydropyran]-1-yl)-2,2-dimethyl-propyl] 3-(ethylcarbamoyl)-benzoate] cannot be ordered by IC50: less than 0.1 µM for the first, less than 0.1 µM for the second.

CCc1nn(CC(C)(C)COC(=O)c2ccccc2C(F)(F)F)c2c1C(=O)NCC1(CCOCC1)C2 [Example 303, [3-(3-ethyl-4-oxo-spiro[6,8-dihydro-5H-pyrazolo[4,3-c]azepine-7,4′-tetrahydropyran]-1-yl)-2,2-dimethyl-propyl] 2-(trifluoromethyl)benzoate] was tested, and the IC50 was less than 0.1 µM.
